Assays:
[1] = system: SK-OV-3 cells; experiment: NK-cell-mediated ADCC, LDH release cytotoxicity assay, Herceptin; assay type: cell-based, human
Method: (§1) The cytotoxicity of NK cells was measured using the CyQUANT™ LDH Cytotoxicity Assay Kit (Invitrogen™, #C20300) according to the manufacturer’s instructions. Briefly, enriched NK cells (6 × 10^5 /ml) were cultured with the same volume of Mino cell and SK-OV-3 cell (1-2 × 10^4 /ml) in a 96-well plate for 4 h with Rituximab and Herceptin (10 μg/mL) and CHMFL-BTK-85 or PCI32765 at 37°C in a humidified CO2 incubator prior to removal of the supernatant for lactate dehydrogenase (LDH) release measurements. Calculate % Cytotoxicity by using the following formula: %Cytotoxicity = (Compound-treated LDH activity-Spontaneous LDH activity)/(Maximum LDH activity-Spontaneous LDH activity)*100.

[2] = system: Mino cells; experiment: NK-cell-mediated ADCC, LDH release cytotoxicity assay, Rituximab; assay type: cell-based, human
Method: as §1

[3] = system: TMD8 cell (DLBCL)-inoculated xenograft; experiment: TMD8 cell subcutaneous xenograft tumor model; assay type: in vivo; conditions: TMD8 xenograft, 100 mg/kg/day, 28 days
[4] = drug enrichment in the tumor; assay type: in vivo, mouse; conditions: 100 mg/kg
[5] = system: REC-1 cell (MCL)-inoculated xenograft; experiment: REC-1 cell subcutaneous xenograft tumor model; assay type: in vivo; conditions: REC-1 xenograft, 100 mg/kg/day, 14 days
[6] = system: JEKO-1; experiment: anti-proliferative CellTiter-Glo assay; assay type: cell-based; conditions: Homo sapiens, JeKo-1, 72 h
Method: (§2) Cell viability was measured using the CellTiter–Glo assay (Promega, USA) according to the manufacturer’s instructions, and […] was measured in a Bio-red Microplate reader (Bio-Red, USA).

[7] = system: WSU-DLCL2; experiment: anti-proliferative CellTiter-Glo assay; assay type: cell-based; conditions: Homo sapiens, WSUDLCL2; WSU-DLCL2, 72 h
Method: as §2

[8] = system: REC-1; experiment: anti-proliferative CellTiter-Glo assay; assay type: cell-based; conditions: Homo sapiens, Rec1; REC-1, 72 h
Method: as §2

[9] = system: SU-DHL-2; experiment: anti-proliferative CellTiter-Glo assay; assay type: cell-based; conditions: Homo sapiens, SU-DHL-2, 72 h
Method: as §2

[10] = system: SU-DHL-6; experiment: anti-proliferative CellTiter-Glo assay; assay type: cell-based; conditions: Homo sapiens, SU-DHL-6, 72 h
Method: as §2

[11] = system: TMD8; experiment: anti-proliferative CellTiter-Glo assay; assay type: cell-based; conditions: Homo sapiens, TMD8, 72 h
Method: as §2

[12] = system: DOHH2; experiment: anti-proliferative CellTiter-Glo assay; assay type: cell-based; conditions: Homo sapiens, DOHH-2; DOHH2, 72 h
Method: as §2

[13] = system: Pfeiffer; experiment: anti-proliferative CellTiter-Glo assay; assay type: cell-based; conditions: Homo sapiens, 72 h
Method: as §2

[14] = system: Raji; experiment: anti-proliferative CellTiter-Glo assay; assay type: cell-based; conditions: Homo sapiens, 72 h
Method: as §2

[15] = system: U2932; experiment: anti-proliferative CellTiter-Glo assay; assay type: cell-based; conditions: Homo sapiens, U2932, 72 h
Method: as §2

[16] = system: Ramos; experiment: anti-proliferative CellTiter-Glo assay; assay type: cell-based; conditions: Homo sapiens, 72 h
Method: as §2

[17] = system: REC-1 cells bone marrow engraftment; experiment: REC-1 cells bone marrow engrafted mouse model; assay type: in vivo; conditions: REC-1 bone marrow engraftment, 100 mg/kg/day p.o.
Method: Five-week old female NOD-SCID mice were purchased from the Beijing Vital River Laboratory Animal Technology Co., Ltd (Beijing, China). All animals were housed in a specific pathogen free facility and used according to the animal care regulations of Hefei Institutes of Physical Science, Chinese Academy of Sciences. NOD-SCID mice were induced by intraperitoneal injection of cyclophosphamide (CTX) 50 mg/kg daily for two days. 8 million REC-1 cells in 0.3 mL RPMI1640 medium were injected by intravenous after 24 h. […] Mice were monitored daily and were euthanized when moribund or at early signs of hind limb paralysis.

C=CC(=O)N1CCC[C@@H](n2nc(-c3ccc(Oc4ccccc4)cc3)c3c(N)ncnc32)C1 [Ibrutinib, reference compound]
effect on antibody-dependent NK-cell-mediated cytotoxicity (ADCC) [1]: significantly impaired
effect on antibody-dependent NK-cell-mediated cytotoxicity (ADCC) [2]: significantly impaired
TGI [3]: 90%
concentration in the tumor [4]: 1230 nM
TGI [5]: 59%
GI50 [6]: 2000 ± 150 nM
GI50 [7]: 180 ± 100 nM
GI50 [8]: 30 ± 21 nM
GI50 [9]: 4900 ± 200 nM
GI50 [10]: 370 ± 55 nM
GI50 [11]: 1 ± 0.1 nM
GI50 [12]: 260 ± 180 nM
GI50 [13]: 1200 ± 120 nM
GI50 [14]: 6100 ± 1800 nM
GI50 [15]: 1400 ± 1200 nM
GI50 [16]: 3800 ± 660 nM
median survival time [17]: 39 days

CC#CC(=O)N1CCC[C@H]1c1nc(-c2ccc(C(=O)Nc3ccccn3)cc2)c2c(N)nccn12 [Acalabrutinib]
concentration in the tumor [4]: 1300 nM
TGI [5]: 58%
GI50 [8]: 30 ± 2 nM
GI50 [11]: 20 ± 3 nM

Source: article PMC7490411 (Signal Transduction and Targeted Therapy, 2020)
